Consider three compounds from patent US10875830B2, “Method of treatment” (priority 2016, dated 2020).

Where two headings read alike, the source gives them in different places.

For assay [1], the system named is P. aeruginosa PAO1 pqsA::lux. Kind of assay: pqsA::lux promoter fusion biosensor in P. aeruginosa PAO1-L (AQ-dependent quorum sensing). Particulars: for IC50: Pseudomonas aeruginosa, PAO1, read-out: IC50, pqsA::lux expression; for inhibition of light output / pqsA expression at high concentrations: FIG. 6 and 7. The assay is classed as cell-based, Pseudomonas aeruginosa. The protocol: The expression of rhl and las AHL- and the pqsA AQ-synthase genes was evaluated using lux-based lasl (FIG. 1), rhll (FIG. 2) and pqsA (FIG. 3) chromosomally integrated promoter fusions. Luminescence was quantified as a function of bacterial growth. The applicant further determined that none of the lactams is growth inhibitory at 100 μM using a large number of strains (figure not shown).
To determine the relative inhibitory activities (IC50s) of 4-(4-chlorophenyl)-5-methylene-pyrrol-2-one (Ref. 488) and 5-methylene-4-(p-tolyl)pyrrol-2-one (Ref. 491), dose response curves were constructed using the same biosensor strain (P. aeruginosa PAO1 pqsA::lux; Fletcher et al, 2007; Ilangovan et al 2013). This strain produces light in response to the endogenous production of AQs such as PQS and HHQ.

Assay [2] has as its system P. aeruginosa strain PAO1-L. Kind of assay: pyocyanin production by PAO1-L, visual assessment. The assay is classed as cell-based, Pseudomonas aeruginosa. Particulars: 100 μM (vial 2), 8 h at 37° C., qualitative. From the text:
Pyocyanin is a blue redox-active secondary metabolite and a putative signalling molecule in P. aeruginosa (Jayaseelan et al, 2014). The pyocyanin biosynthetic (phz) genes are regulated by QS and in part via the transcriptional regulator PqsR acting through PqsE (Rampioni et al 2011).
Although qualitative, this observation offers further confirmation of the inhibitory effects of lactam 4-(4-chlorophenyl)-5-methylene-pyrrol-2-one (Ref. 488) on AQ-dependent QS.

The target of assay [3] is T1, PqsR (Pseudomonas aeruginosa, UniProt Q9I4X0).
T1 construct: endogenous in cells; host or cells: P. aeruginosa PAO1-L ΔpqsA, chromosomal pqsA::lux fusion
Kind of assay: PQS-dependent pqsA::lux expression in AQ-non producing PAO1-L ΔpqsA (PqsR antagonism). The class given is cell-based. From the text: The inhibitory action of 4-(4-chlorophenyl)-5-methylene-pyrrol-2-one (Ref. 488) may involve inhibition of AQ biosynthesis or 4-(4-chlorophenyl)-5-methylene-pyrrol-2-one (Ref. 488) may behave like an antagonist and block the PQS receptor, PqsR. […] Experiments were therefore designed to determine the nature and degree of 4-(4-chlorophenyl)-5-methylene-pyrrol-2-one (Ref. 488) inhibitory activity.
By using the AQ-non producing P. aeruginosa strain PAO1-L ΔpqsA, pqsA::lux, the EC50 value for the native PqsR agonist, PQS was calculated as ˜2 μM (Ilangovan et al. 2013).
The experiment shown in FIG. 8 was then repeated using 4-(4-chlorophenyl)-5-methylene-pyrrol-2-one (Ref. 488) concentrations of 0, 50, 100 and 200 μM.
A partial agonist is a molecule that can bind to and activate a receptor resulting in a non-complete response compared with a full agonist. […] This contrasts with its activity as an antagonist in the presence of 10 or 40 μM PQS.

The subject of assay [4] is PAO1-N ΔpqsAHR pqsA'::lux. Kind of assay: PqsR-independent pqsA'::lux expression in PAO1-N ΔpqsAHR. The assay is classed as cell-based, Pseudomonas aeruginosa. Particulars: presence or absence of 40 μM PQS, FIG. 11. From the text:
PQS is capable of weakly activating pqsA in the absence of PqsR via a mechanism that is not fully understood but appears to depend on the iron chelating properties of PQS. The aim of this experiment was to clarify whether lactam 4-(4-chlorophenyl)-5-methylene-pyrrol-2-one (Ref. 488) is also inhibitory for pqsA expression via the PqsR independent pathway. As previously described, the pqsA′::lux biosensor based on the triple mutant PAO1-N ΔpqsAHR cannot produce AQs and lacks pqsR but still responds to exogenous PQS. This response is however much weaker that the PqsR-dependent response.

Assay [5] concerns P. aeruginosa PA14 pqsA'::lux. Kind of assay: pqsA'::lux fusion in P. aeruginosa PA14. The class given is cell-based. Particulars: Pseudomonas aeruginosa, PA14, read-out: IC50, pqsA'::lux expression in PA14. The source says: To investigate the inhibitory effect of 4-(4-chlorophenyl)-5-methylene-pyrrol-2-one (Ref. 488) on P. aeruginosa PA14, a pqsA′::lux fusion was introduced onto the chromosome.

Assay [6] deals with PqsABCD. Kind of assay: AQ (HHQ) biosynthesis by PqsABCD, TLC with biosensor overlay. Particulars: 200 μM, PAO1-N ΔpqsAHR pBBR-pqsABCD, overnight in LB. The assay is classed as cell-based, Pseudomonas aeruginosa. From the text: To determine whether 4-(4-chlorophenyl)-5-methylene-pyrrol-2-one (Ref. 488) is capable of inhibiting the enzymes (PqsABCD) involved in AQ biosynthesis, the P. aeruginosa PAO1-N ΔpqsAHR was exploited. This mutant cannot produce AQs because the genes coding for the key biosynthetic enzymes (PqsA and PqsH) and regulation (PqsR) have been deleted. To restore AQ production in a PqsR-independent manner in PAO1-N ΔpqsA, the pqsABCD genes were introduced on a plasmid (pBBR pqsABCD; Niewerth et al. 2011). P. aeruginosa PAO1-N ΔpqsAHR and P. aeruginosa PAO1-N ΔpqsAHR pBBR pqsABCD were both incubated overnight in LB with and without 4-(4-chlorophenyl)-5-methylene-pyrrol-2-one (Ref. 488) (200 μM), resuspended to an OD600 1.0. The cultures were extracted with acidified ethyl acetate, the organic phase removed, dried and resuspended in methanol subjected to thin layer chromatography (TLC).
After chromatography using a dichloromethane-methanol mobile phase, the TLC plates were overlaid with a thin agar layer containing the AQ biosensor strain PAO1-L ΔpqsA CTX::pqsA′-luxCDABE (Fletcher et al. 2007) incubated and examined for reporter output (FIG. 13). […] The biosensor strain produces light (FIG. 13 panel C) and pyocyanin (FIG. 13 panel B) in response to AQs that bind to PqsR and activate the pqsA promoter.

T1 sequence (Q9I4X0 whole entry, the tested form may be a part): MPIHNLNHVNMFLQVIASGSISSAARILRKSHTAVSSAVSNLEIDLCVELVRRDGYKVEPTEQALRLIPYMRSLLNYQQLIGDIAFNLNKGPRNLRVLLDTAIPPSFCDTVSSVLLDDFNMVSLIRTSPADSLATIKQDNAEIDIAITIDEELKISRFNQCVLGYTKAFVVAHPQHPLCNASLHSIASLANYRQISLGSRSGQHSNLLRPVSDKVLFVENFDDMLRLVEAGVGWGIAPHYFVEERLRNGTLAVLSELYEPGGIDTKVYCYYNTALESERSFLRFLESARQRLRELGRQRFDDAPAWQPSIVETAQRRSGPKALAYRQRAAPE

As a reminder, the IC50 is the midpoint of a concentration-inhibition curve. `C=C1NC(=O)C=C1c1ccc(Cl)cc1` [Lactam 488, 4-(4-chlorophenyl)-5-methylene-pyrrol-2-one]: in assay [1], the IC50 turned out to be 22 µM and the “inhibition of light output / pqsA expression at high concentrations” value is reported as “completely inhibited light output”. The “inhibition of the PqsR-dependent pqsA::lux promoter fusion (screen)” value in assay [1] (lactams at 100 μM, FIG. 3) is “most potent inhibitor”. Moreover, the pyocyanin production entry in assay [2] is on record as “inhibition of pyocyanin production”. For the same compound, the “mode of action on PQS-dependent pqsA::lux expression” value in assay [3] (488 at 0, 50, 100 and 200 μM, range of PQS, FIG. 9) is given as “competitive antagonist”. Further, the “restoration of light output by PQS in the presence of the lactam” value in assay [3] (488 at 50, 100, 200 μM, FIG. 9) is “fully restoring light output in the presence of 50 μM but not 100 μM or 200 μM”. Also, the “partial agonist activity (activation of pqsA expression)” value in assay [3] (concentrations up to 800 μM, without PQS, FIG. 10) is recorded as “no partial agonist activity”. In assay [3] (fixed concentration of 488 (215 μM)), the “fold increase of PQS EC50 caused by the lactam” value is reported as ~15 fold. The “effect on the PqsR-independent expression of pqsA” value in assay [4] is on record as “small inhibitory effect”. The IC50 in assay [5] stood at 17.9 µM. The “inhibition of HHQ biosynthesis” value in assay [6] was “did not inhibit HHQ biosynthesis”.

Regarding `C=C1NC(=O)C=C1c1ccc(C)cc1` [Lactam 491, 5-methylene-4-(p-tolyl)pyrrol-2-one], in assay [1], the IC50 amounted to 44 µM and the “inhibition of light output / pqsA expression at high concentrations” value was “did not inhibit pqsA expression as strongly”.

In general, EC50 refers to the concentration needed to bring the measured effect to its halfway point. Regarding `CCCCCCCc1[nH]c2ccccc2c(=O)c1O` [PQS, 2-heptyl-3-hydroxy-4-(1H)-quinolone, reference compound], the EC50 was 31 µM in assay [3] (EC50 of PQS for pqsA::lux expression in the presence of lactam 488, fixed concentration of 488 (215 μM), range of PQS concentrations, FIG. 8); ~2 µM in assay [3] (EC50 of PQS for pqsA::lux expression, PQS alone, PAO1-L ΔpqsA pqsA::lux); 2 µM in assay [3] (PQS alone, PAO1-L ΔpqsA pqsA::lux, read-out: EC50 of PQS for pqsA::lux expression).
